Reference: US20240180910A1, “METHOD FOR TREATING CANCER WITH A CHEMOTHERAPEUTIC MODIFIER” (Elion Oncology, Inc., priority 2022, published 2024)
Read-outs that look alike come from different tables or passages of the source.

Legend:
[1] = cited from earlier work; for t1/2: arithmetic mean
[2] = cited from earlier work
[3] = clinical; conditions: human, in vivo
Experimental: (§1) To evaluate the safety, dose-limiting toxicities (DLTs), and maximum tolerated dose (MTD) of capecitabine administered to patients with advanced, refractory gastrointestinal tract (GI) tumors using a 7 days on +7 days off capecitabine regimen ˜24 hours after a single, fixed, oral 40 mg dose of eniluracil.
(§2) Eniluracil (40-50 mg) is orally administrated at Day 1. After 12-24 hours, capecitabine is orally administered. Capecitabine is given twice a day at 140-600 mg/day for a total of 7 days. Then the patient is rested for 7 days before receiving the next cycle which follows the above-described procedures. The cycles are repeated until either the patient has a complete response or when the disease progresses in the patient. A complete response means that the tumor is no longer present. Progression of the cancer means that the tumor starts enlarging or the tumor is no longer stable.
(§3) Primary Endpoints: • DLTs and incidences of AEs according to NCI CTCAE Version 5.0. • Concentrations of capecitabine, 5 FU, FBAL, 5′ DFCR, and 5′ DFUR in plasma, PK parameters will be estimated from concentration time data using noncompartmental methods, as data permit. • Concentrations of eniluracil in plasma; PK parameters will be estimated from concentration-time data using noncompartmental methods, as data permit. • 2.
(§4) Briefly, capecitabine was administered to patients with advanced, refractory gastrointestinal tract (GI) tumors using a 7 days on +7 days off capecitabine regimen ˜24 hours after a single, fixed, oral 40 mg dose of eniluracil.

[4] = test system: patient-derived colon cancer xenograft CXF 280; conditions: for Minimum T/C: days 1-14, 22-35, Day 35
Experimental: This study was to assess the antitumor efficacy of eniluracil in combination with different doses of capecitabine in the patient-derived colon xenograft CXF 280 subcutaneously implanted in immunodeficient athymic nude mice.
The study consisted of an in vivo efficacy experiment with the patient-derived colon cancer xenograft CXF 280 implanted subcutaneously in athymic nude mice.
This experiment consisted of six groups with six animals each. Animals were dosed in monotherapy with capecitabine at 300 or at 30 mg/kg/day daily for 2 weeks with a one-week dosing break followed by another 2 weeks of daily dosing (14 days ON and 7 days OFF). In combination therapies, capecitabine was dosed at 30, 15 or 7.5 mg/kg/day on days 1-7, 15-21 and 29-35 (7 days ON and 7 days OFF) as well as with eniluracil at 10 mg/kg/day on days 1, 3, 5, 15, 17, 19, 29, 31, and 33.
Combination therapies with capecitabine and eniluracil scheduled for the same dosing day were administered with a six-hour dosing delay after dosing with eniluracil in order to ensure that all the eniluracil is eliminated in the mouse prior to capecitabine administration.
All therapies were administered via oral gavage (p.o.) over the course of 35 days followed by an observation period of one week until day 42 of the experiment.
Relative tumor volumes (RTVs) for Day x were calculated by dividing the absolute individual tumor volume on Day x (Tx) by the absolute individual tumor volume of the same tumor on the day of randomization (Tr) multiplied by 100%.
Tumor growth inhibition was determined by comparison of the median RTV of the test groups (T) with the vehicle control group (C) and was expressed as minimum T/C value in percent. The minimum T/C value recorded for a test group during an experiment represents the maximum antitumor efficacy for the respective treatment.

[5] = colon cancer, adjuvant, XELODA 1250 mg/m^2/bid (n = 995), i.v. 5-FU/LV Mayo Clinic regimen (n = 974), cited from earlier work
[6] = human, in vivo
Experimental: as §1, §2, §3, §4

[7] = doses up to 50 g per day administered for seven days; cited from earlier work
[8] = Clinical trial: plasma pharmacokinetics, capecitabine 7 days on + 7 days off ~24 hours after single oral 40 mg eniluracil; conditions: day 8
Experimental: as §1, §2, §3, §4

[9] = plasma, Day 14, after oral capecitabine 1255 mg/m^2, 8 cancer patients
[10] = plasma, Day 14, after oral capecitabine 1255 mg/m^2, 8 cancer patients, geometric mean
[11] = plasma, Day 14, after oral capecitabine 1255 mg/m^2, 8 cancer patients, median
[12] = 2005 EMA for Xeloda, capecitabine alone 1250 mg/m^2

O=c1[nH]cc(F)c(=O)[nH]1 [5-FU, 5-Fluorouracil]
5-FU Mean T1/2 ([1]; Capecitabine alone): 0.76 h | exposure (AUC) ([1]; after capecitabine oral dosing at 1255 mg/m^2): approximately 1630 h*ng/mL | t1/2 [1, 9]: 0.76 h | AUC0-t [1, 10]: 1620 ng·h/mL | AUC0-∞ [1, 10]: 1630 ng·h/mL | Cmax [1, 10]: 709 ng/mL | tmax [1, 11]: 2.00 h | AUC0-∞ [2, 12]: 2030 ng·h/mL | peak plasma concentrations (Cmax) [2, 12]: 950 ng/mL | half-life ([3]; 5-FU Day 2 Mean T1/2, capecitabine daily dose 75 (with Eniluracil)): 3.6 h | half-life ([3]; 5-FU Day 2 Mean T1/2, capecitabine daily dose 150 (with Eniluracil)): 3.35 h | half-life ([3]; 5-FU Day 2 Mean T1/2, capecitabine daily dose 300 (with Eniluracil)): 3.54 h | half-life ([3]; 5-FU Day 2 Mean T1/2, capecitabine daily dose 450 (with Eniluracil)): 5.71 h | half-life ([3]; half-life (T1/2) of 5-FU at day 2, capecitabine in combination with eniluracil pretreatment, highest over doses): ≤ 5.71 h

C[C@H]1O[C@@H](n2cc(F)c(N)nc2=O)[C@H](O)[C@@H]1O [5′-DFCR, 5′-deoxy-5-fluorocytidine]
t1/2 [1, 9]: 1.31 h | AUC0-t [1, 10]: 3970 ng·h/mL | AUC0-∞ [1, 10]: 5210 ng·h/mL | Cmax [1, 10]: 1710 ng/mL | tmax [1, 11]: 2.00 h | AUC0-∞ [2, 12]: 7240 ng·h/mL | peak plasma concentrations (Cmax) [2, 12]: 3050 ng/mL | time to peak plasma concentrations (tmax) [2, 12]: 2.00 h

C[C@H]1O[C@@H](n2cc(F)c(=O)[nH]c2=O)[C@H](O)[C@@H]1O [5′DFUR, doxifluridine]
t1/2 [1, 9]: 0.66 h | AUC0-t [1, 10]: 19900 ng·h/mL | AUC0-∞ [1, 10]: 21700 ng·h/mL | Cmax [1, 10]: 9370 ng/mL | AUC0-∞ [2, 12]: 24600 ng·h/mL | peak plasma concentrations (Cmax) [2, 12]: 12100 ng/mL | time to peak plasma concentrations (tmax) [2, 12]: 2.00 h

CCCCCOC(=O)Nc1nc(=O)n([C@@H]2O[C@H](C)[C@@H](O)[C@H]2O)cc1F [Capecitabine, capecitabine]
t1/2 [1, 9]: 0.85 h | AUC0-t [1, 10]: 7290 ng·h/mL | AUC0-∞ [1, 10]: 7400 ng·h/mL | Cmax [1, 10]: 3990 ng/mL | tmax [1, 11]: 1.50 h | AUC0-∞ [2, 12]: 7750 ng·h/mL | peak plasma concentrations (Cmax) [2, 12]: 4670 ng/mL | time to peak plasma concentrations (tmax) [2, 12]: 1.50 h | Minimum T/C ([4]; Group 2: capecitabine 300 mg/kg/day p.o.): 4.5% | Minimum T/C ([4]; Group 3: capecitabine 30 mg/kg/day p.o.): 34.9% | antitumor activity (in words) ([4]; monotherapy with capecitabine at 300 mg/kg/day in mice): high antitumor activity | Abdominal pain upper, Grade 3/4 [5]: <1% | Abdominal pain upper, Total [5]: 6% | Abdominal pain, Grade 3/4 [5]: 2% | Abdominal pain, Total [5]: 10% | Alopecia, Total [5]: 6% | Anorexia, Grade 3/4 [5]: <1% | Anorexia, Total [5]: 9% | Asthenia, Grade 3/4 [5]: <1% | Asthenia, Total [5]: 9% | Conjunctivitis, Grade 3/4 [5]: <1% | Conjunctivitis, Total [5]: 5% | Constipation, Total [5]: 6% | Diarrhea, Grade 3/4 [5]: 11% | Dizziness, Grade 3/4 [5]: <1% | Dizziness, Total [5]: 5% | Dysgeusia, Total [5]: 6% | Dyspepsia, Grade 3/4 [5]: <1% | Dyspepsia, Total [5]: 5% | Erythema, Grade 3/4 [5]: 1% | Erythema, Total [5]: 6% | Fatigue, Grade 3/4 [5]: <1% | Fatigue, Total [5]: 15% | Hand-foot Syndrome, Grade 3/4 [5]: 17% | Lethargy, Grade 3/4 [5]: <1% | Lethargy, Total [5]: 10% | Nausea, Grade 3/4 [5]: 2% | Nausea, Total [5]: 33% | Neutropenia, Grade 3/4 [5]: <1% | Neutropenia, Total [5]: 2% | Pyrexia, Grade 3/4 [5]: <1% | Pyrexia, Total [5]: 4% | Rash, Total [5]: 6% | Stomatitis, Grade 3/4 [5]: 2% | Stomatitis, Total [5]: 22% | Vomiting, Grade 3/4 [5]: 2% | Vomiting, Total [5]: 14% | Diarrhea, Total ([5]; listed as XELODA): 46% | Hand-foot Syndrome, Total ([5]; listed as XELODA): 60% | Diarrhea, Total ([5]; listed as Xeloda): about 46% | Hand-foot Syndrome, Total ([5]; listed as Xeloda): about 60%

C#Cc1c[nH]c(=O)[nH]c1=O [Eniluracil, 5-Ethynyluracil]
metabolism of capecitabine into FBAL (AUC and Cmax of FBAL) [6]: completely blocked | safety [7]: safe

NCC(F)C(=O)O (stereo not drawn) [FBAL, α-fluoro-β-alanine]
AUC0-t ([1]; human, in vivo, po, 1255 mg/m2): 30000 ng·h/mL | AUC0-∞ ([1]; human, in vivo, po, 1255 mg/m2): 35200 ng·h/mL | Cmax ([1]; human, in vivo, po, 1255 mg/m2): 5320 ng/mL | exposure (AUC) ([1]; human, in vivo, po, 1255 mg/m2): 30-35,000 h*ng/mL | tmax ([1]; human, in vivo, po, 1255 mg/m2): 3.34 h | Tmax of FBAL ([1]; human, in vivo): 3.24 h | t1/2 [1, 9]: 3.23 h | AUC0-∞ ([2]; in vivo, 1250 mg/m2): 36300 ng·h/mL | peak plasma concentrations (Cmax) ([2]; in vivo, 1250 mg/m2): 5460 ng/mL | time to peak plasma concentrations (tmax) ([2]; in vivo, 1250 mg/m2): 3.34 h | effects of eniluracil on FBAL metabolism [8]: no longer apparent

O=C1NCC(F)C(=O)N1 (centres unmarked) [FUH2]
t1/2 [1, 9]: 1.14 h | AUC0-t [1, 10]: 1200 ng·h/mL | AUC0-∞ [1, 10]: 2150 ng·h/mL | Cmax [1, 10]: 442 ng/mL | tmax [1, 11]: 2.28 h
